Results: patent US20250129093A1, “COMPOSITIONS AND METHODS RELATING TO ATP/P2X7R SIGNALING INHIBITION” (THE CHILDREN'S MEDICAL CENTER CORPORATION, priority 2022, published 2025)
Entries after “also recorded” stand apart in the source; their conditions may differ.

What was measured:
[1] = tested on: P2X7R signaling through eATP; assay: BzATP-stimulated CD4+ T cells from human PBMCs, expression of Th2-related factors; assay type: cell-based; settings: for inhibition of activation of P2X7R signaling through eATP (expression of Th2-related factors IL-4 and IRF4): human CD4+ T cells stimulated with benzoyl ATP (BzATP)
From the text: Peripheral blood mononuclear cell (PBMCs) were isolated from collected human blood samples and recovered CD4+ T cells were purified and treated with different compounds. In particular cells were activated upon stimulation with benzoyl ATP (BzATP) and treated with human P2X7R inhibitor CE-224,535, P2X7 receptor antagonist oATP and the 6 small molecules identified in the bioinformatics and HTVS approaches above.

[2] = tested on: CD4+ T cells obtained from individuals carrying the P2X7R mutation; assay: Th17 generation in vitro in CD4+ T cells from individuals carrying the P2X7R mutation; assay type: cell-based, human; settings: inhibitor added to the cell culture, carriers of P2X7R mutation rs3751143
From the text: (§1) The P2X7R mutation rs3751143 is associated with the development of increased immunological events, particularly with the development of a HyperTh-17 syndrome, which is mainly characterized by an imbalance between T-helper cells which favors generation of Th-17 cells.

[3] = tested on: P2X7R−/− mice receiving a Bm12 heart; assay: Heart allograft survival in P2X7R-/- mice receiving a Bm12 heart; assay type: in vivo; settings: Bm12 heart transplant, p=0.04
From the text: as §1

[4] = tested on: P2X7R signaling through eATP; settings: cells of individuals who do not carry the P2X7R mutation; cited from earlier work
C57BL6 (B6) mice = assay: Survival (longevity) of C57BL6 (B6) mice; assay type: in vivo; settings: 7.5 mg/Kg
From the text: Given that administration of P2X7R inhibitors is associated with a slow-down of metabolic processes within activated cells/tissues (9) and the effect of eATP in favoring cell senescence, it is contemplated herein that this mechanism could be responsible for promoting longevity and prolonging survival.

COc1ccc(/C=N\Nc2cc(C)nc(NCc3ccccc3)n2)c(OC)c1 [Compound #5, Benzyl-{4-[N′-(2,4-dimethoxy-benzylidene)-hydrazino]-6-methyl-pyrimidin-2-yl}-amine]
effect on the expression of Th2-related factors GATA3, IL-4 and IRF4 ([1]; PBMCs, FIG. 2, compared with CE-224,535 and oATP): effect comparable to that of human P2X7R inhibitor CE-224,535 and P2X7 receptor antagonist oATP
inhibition of activation of P2X7R signaling through eATP (expression of Th2-related factors IL-4 and IRF4) [1]: significative ability to inhibit the activation of P2X7R signaling

OC(CNCc1ccccc1)COc1ccc(OCC(O)CNCc2ccccc2)cc1 (centres unmarked) [compound 3, 1-Benzylamino-3-[4-(3-benzylamino-2-hydroxy-propoxy)-phenoxy]-propan-2-ol]
inhibition of activation of P2X7R signaling through eATP (expression of Th2-related factors IL-4 and IRF4) [1]: significative ability to inhibit the activation of P2X7R signaling

Cc1ccccc1Nc1nc2nonc2nc1N/N=C\c1cccc2ccccc12 [compound 4, [6-(N′-Naphthalen-1-ylmethylene-hydrazino)-[1,2,5]oxadiazolo[3,4-b]pyrazin-5-yl]-o-tolyl-amine]
inhibition of activation of P2X7R signaling through eATP (expression of Th2-related factors IL-4 and IRF4) [1]: significative ability to inhibit the activation of P2X7R signaling

O=C(O)c1ccccc1-c1ccccc1C(=O)Nc1cccc(-c2nc3ccccc3[nH]2)c1 [compound 6, 2′-[3-(1H-Benzoimidazol-2-yl)-phenylcarbamoyl]-biphenyl-2-carboxylic acid]
inhibition of activation of P2X7R signaling through eATP (expression of Th2-related factors IL-4 and IRF4) [1]: significative ability to inhibit the activation of P2X7R signaling

Nc1ncnc2c1ncn2[C@@H](C=O)O[C@@H](C=O)COP(=O)(O)OP(=O)(O)OP(=O)(O)O [oATP]
Th17 generation [2]: at least partially inhibited; also recorded: partially abrogated
allograft survival [3]: significantly prolongs allograft survival
neutralizing activation of P2X7R signaling through eATP [4]: capable of neutralizing activation of P2X7R signaling
MST (C57BL6 (B6) mice): 19.5 weeks
treated animals alive (C57BL6 (B6) mice; at 17 weeks): 60%
survival as compared to untreated controls (C57BL6 (B6) mice; p=0.01, 7.5 mg/kg): significantly prolongs survival; also recorded: increased survival
